Paper PMC3731163 (MedChemComm, 2013)
Read-outs that look alike come from different tables or passages of the source.

Key:
H37Rv Mtb [1] = experiment: Whole cell antitubercular activity; format: cell-based, Mycobacterium tuberculosis
H37Rv Mtb [2] = conditions: cited from earlier work
Mtb Dxr [3] = target: T1, Mtb Dxr (Mycobacterium tuberculosis, UniProt P9WNS1); conditions: see also Supplementary Figure 1; cited from earlier work
Mtb Dxr [4] = target: T1, Mtb Dxr; experiment: Classical competition experiments; format: biochemical; conditions: double reciprocal plots

T1 sequence (P9WNS1 whole entry): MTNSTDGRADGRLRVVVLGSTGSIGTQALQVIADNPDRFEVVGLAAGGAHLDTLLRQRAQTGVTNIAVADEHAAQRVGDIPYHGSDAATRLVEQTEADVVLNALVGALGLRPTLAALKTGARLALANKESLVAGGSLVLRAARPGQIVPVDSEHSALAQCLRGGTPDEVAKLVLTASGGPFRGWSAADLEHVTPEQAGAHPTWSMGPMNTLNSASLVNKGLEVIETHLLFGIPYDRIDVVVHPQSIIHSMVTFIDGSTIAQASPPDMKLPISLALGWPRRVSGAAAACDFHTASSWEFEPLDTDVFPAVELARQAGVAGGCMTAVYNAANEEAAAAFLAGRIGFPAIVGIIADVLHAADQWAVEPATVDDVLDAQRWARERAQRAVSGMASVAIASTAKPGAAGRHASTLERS

CCOP(=O)(CCCN(O)C(=O)CCCc1ccccc1)OCC [18b]
inhibition of Mtb growth (in words) (H37Rv Mtb [1]): display measurable antitubercular activity
inhibition of Mtb growth (in words) (H37Rv Mtb [1]; listed as diethyl ester of 8): inhibits Mtb growth

O=CN(O)CCCP(=O)(O)O [Compound 1, Fosmidomycin]
inhibition of Mtb growth (in words) (H37Rv Mtb [1]): do not inhibit Mtb
activity against Mtb (in words) (H37Rv Mtb [2]): inactive
mode of inhibition with respect to DXP (Mtb Dxr [3]): competitive

CC(=O)N(O)CCCP(=O)([O-])O.[Na+] [Compound 2, FR900098]
inhibition of Mtb growth (in words) (H37Rv Mtb [1]): do not inhibit Mtb
mode of inhibition relative to NADPH (Mtb Dxr [3]): uncompetitive
mode of inhibition with respect to DXP (Mtb Dxr [3]): competitive

O=C(CCCc1ccccc1)N(O)CCCP(=O)([O-])O.[Na+] [Compound 8]
inhibition of Mtb growth (in words) (H37Rv Mtb [1]): do not inhibit Mtb
mode of inhibition with respect to DXP (Mtb Dxr [4]): competitive
mode of inhibition with respect to NADPH (Mtb Dxr [4]): noncompetitive

CCOP(=O)(CCCN(O)C=O)OCC [Diethyl-1]
inhibition of Mtb growth (in words) (H37Rv Mtb [1]): display measurable antitubercular activity
